ChEMBL document CHEMBL1136528, “Novel pyrrolyllactone and pyrrolyllactam indolinones as potent cyclin-dependent kinase 2 inhibitors” (Bioorg Med Chem Lett, 2003)

What was measured:
[1] = molecular target: Cyclin-dependent kinase 2 (Homo sapiens, UniProt P24941); assay: Inhibitory activity against Cyclin-dependent kinase 2
[2] = molecular target: Proto-oncogene tyrosine-protein kinase Src (Homo sapiens, UniProt P12931); assay: Inhibitory activity was tested against Src protein tyrosine kinase
[3] = molecular target: Platelet-derived growth factor receptor beta (Homo sapiens, UniProt P09619); assay: Inhibitory activity was tested against Platelet-derived growth factor receptor beta
[4] = molecular target: Vascular endothelial growth factor receptor 2 (Homo sapiens, UniProt P35968); assay: Inhibitory activity was tested against FLK kinase
Vascular endothelial growth factor receptor 2, sequence (P35968 whole entry): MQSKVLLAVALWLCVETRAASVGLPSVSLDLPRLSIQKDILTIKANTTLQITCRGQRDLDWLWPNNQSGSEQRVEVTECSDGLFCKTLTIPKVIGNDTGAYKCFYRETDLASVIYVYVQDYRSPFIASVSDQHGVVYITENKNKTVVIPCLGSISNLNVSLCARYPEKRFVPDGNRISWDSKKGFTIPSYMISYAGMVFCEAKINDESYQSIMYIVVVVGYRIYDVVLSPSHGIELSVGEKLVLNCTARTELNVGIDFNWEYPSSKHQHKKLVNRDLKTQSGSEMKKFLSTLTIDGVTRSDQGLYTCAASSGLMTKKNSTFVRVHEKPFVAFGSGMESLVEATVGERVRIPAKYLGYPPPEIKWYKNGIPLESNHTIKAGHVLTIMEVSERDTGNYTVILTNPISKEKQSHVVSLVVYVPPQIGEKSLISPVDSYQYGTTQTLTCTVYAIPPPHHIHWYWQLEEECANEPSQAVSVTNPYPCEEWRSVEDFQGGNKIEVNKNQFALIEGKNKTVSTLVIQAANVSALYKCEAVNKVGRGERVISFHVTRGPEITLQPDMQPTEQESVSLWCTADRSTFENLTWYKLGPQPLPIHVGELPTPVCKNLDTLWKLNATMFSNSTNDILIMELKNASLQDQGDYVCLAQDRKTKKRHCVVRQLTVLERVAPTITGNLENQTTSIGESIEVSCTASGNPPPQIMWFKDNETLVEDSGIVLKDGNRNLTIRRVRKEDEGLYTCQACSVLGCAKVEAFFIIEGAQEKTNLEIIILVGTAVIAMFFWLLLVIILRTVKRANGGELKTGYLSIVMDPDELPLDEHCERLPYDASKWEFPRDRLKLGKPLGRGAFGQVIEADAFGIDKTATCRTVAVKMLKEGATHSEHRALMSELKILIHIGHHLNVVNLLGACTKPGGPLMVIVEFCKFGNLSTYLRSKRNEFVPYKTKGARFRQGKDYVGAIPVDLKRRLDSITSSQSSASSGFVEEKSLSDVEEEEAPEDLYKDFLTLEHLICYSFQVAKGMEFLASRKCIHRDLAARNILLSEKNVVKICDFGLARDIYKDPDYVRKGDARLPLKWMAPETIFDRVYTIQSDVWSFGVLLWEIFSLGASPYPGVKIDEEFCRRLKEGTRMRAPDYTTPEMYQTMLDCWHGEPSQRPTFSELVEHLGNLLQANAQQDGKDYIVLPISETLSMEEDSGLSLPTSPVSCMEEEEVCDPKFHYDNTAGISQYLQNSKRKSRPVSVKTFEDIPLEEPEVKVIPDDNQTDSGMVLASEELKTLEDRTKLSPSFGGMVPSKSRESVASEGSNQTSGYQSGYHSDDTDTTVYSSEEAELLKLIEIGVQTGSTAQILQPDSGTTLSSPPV

Proto-oncogene tyrosine-protein kinase Src, sequence (P12931 2-536 limits assumed): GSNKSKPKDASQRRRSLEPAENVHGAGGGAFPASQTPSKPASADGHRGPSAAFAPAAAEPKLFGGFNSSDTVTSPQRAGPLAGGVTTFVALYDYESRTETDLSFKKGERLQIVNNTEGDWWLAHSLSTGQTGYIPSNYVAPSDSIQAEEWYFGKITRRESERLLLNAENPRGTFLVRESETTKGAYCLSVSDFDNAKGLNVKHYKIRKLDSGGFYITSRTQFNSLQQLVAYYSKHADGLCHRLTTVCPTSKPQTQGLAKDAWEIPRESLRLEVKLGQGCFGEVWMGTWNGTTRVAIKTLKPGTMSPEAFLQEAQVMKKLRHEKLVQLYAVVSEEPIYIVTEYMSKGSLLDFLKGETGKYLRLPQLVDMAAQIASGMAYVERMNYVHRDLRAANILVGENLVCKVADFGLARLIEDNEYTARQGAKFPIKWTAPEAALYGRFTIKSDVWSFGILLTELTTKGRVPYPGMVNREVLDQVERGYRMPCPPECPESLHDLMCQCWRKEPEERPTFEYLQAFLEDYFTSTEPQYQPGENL
Platelet-derived growth factor receptor beta, sequence (P09619 whole entry): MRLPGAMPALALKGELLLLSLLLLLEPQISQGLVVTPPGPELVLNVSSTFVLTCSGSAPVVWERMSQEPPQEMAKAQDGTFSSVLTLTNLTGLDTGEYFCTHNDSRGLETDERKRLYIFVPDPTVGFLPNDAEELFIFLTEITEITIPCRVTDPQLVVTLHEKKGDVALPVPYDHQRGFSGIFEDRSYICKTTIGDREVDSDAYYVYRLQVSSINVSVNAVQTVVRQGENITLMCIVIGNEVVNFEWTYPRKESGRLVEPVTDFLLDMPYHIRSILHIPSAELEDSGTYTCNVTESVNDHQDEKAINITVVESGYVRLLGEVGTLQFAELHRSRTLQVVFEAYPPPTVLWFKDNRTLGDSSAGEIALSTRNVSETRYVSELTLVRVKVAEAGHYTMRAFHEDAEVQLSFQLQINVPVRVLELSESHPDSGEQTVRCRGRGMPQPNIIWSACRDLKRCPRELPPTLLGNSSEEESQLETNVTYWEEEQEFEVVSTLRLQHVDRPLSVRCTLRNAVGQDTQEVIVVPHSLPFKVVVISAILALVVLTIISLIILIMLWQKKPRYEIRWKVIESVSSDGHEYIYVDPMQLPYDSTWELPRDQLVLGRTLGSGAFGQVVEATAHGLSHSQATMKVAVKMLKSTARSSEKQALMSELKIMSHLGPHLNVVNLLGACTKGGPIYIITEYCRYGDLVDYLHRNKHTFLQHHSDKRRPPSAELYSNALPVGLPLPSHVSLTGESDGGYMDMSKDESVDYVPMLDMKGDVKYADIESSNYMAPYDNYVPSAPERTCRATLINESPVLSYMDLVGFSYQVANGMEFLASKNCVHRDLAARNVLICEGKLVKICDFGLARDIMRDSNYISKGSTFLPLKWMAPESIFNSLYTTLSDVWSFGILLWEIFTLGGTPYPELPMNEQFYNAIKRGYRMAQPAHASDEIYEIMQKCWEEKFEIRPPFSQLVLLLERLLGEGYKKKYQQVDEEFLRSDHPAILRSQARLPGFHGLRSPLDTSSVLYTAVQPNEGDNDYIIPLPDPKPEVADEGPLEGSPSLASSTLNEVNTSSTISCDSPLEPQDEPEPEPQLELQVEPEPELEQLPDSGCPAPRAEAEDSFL

Compound	IC50 [1] [nM]	IC50 [2] [nM]	IC50 [3] [nM]	IC50 [4] [nM]
Cc1cccc2c1/C(=C/c1[nH]cc3c1CCOC3=O)C(=O)N2	270	> 20000	> 20000	> 20000
O=C1Nc2cc(-c3ccccc3)ccc2/C1=C/c1[nH]cc2c1CCOC2=O	> 10000	8400	1100	2000
O=C1Nc2ccc(C(=O)O)cc2/C1=C/c1[nH]cc2c1CCNC2=O	68	–	–	–
COc1ccc2c(c1)/C(=C/c1[nH]cc3c1CCNC3=O)C(=O)N2	250	–	–	–
O=C1Nc2ccc(F)cc2/C1=C/c1[nH]cc2c1CCOC2=O	82	> 20000	> 20000	10000
O=C1Nc2cc(-c3ccccc3)ccc2/C1=C/c1[nH]cc2c1CCNC2=O	5700	–	–	–
COc1ccc2c(c1)/C(=C/c1[nH]cc3c1CCOC3=O)C(=O)N2	40	> 20000	> 20000	> 20000
O=C1Nc2cccc(CCO)c2/C1=C/c1[nH]cc2c1CCOC2=O	30	> 20000	> 20000	1200
O=C1Nc2ccc(Cl)cc2/C1=C/c1[nH]cc2c1CCOC2=O	88	> 20000	2100	> 20000
O=C1Nc2cccc(C3CCNCC3)c2/C1=C/c1[nH]cc2c1CCOC2=O	9	1100	1100	490
COc1ccc2c(c1)NC(=O)/C2=C\c1[nH]cc2c1CCOC2=O	1500	> 20000	1400	> 20000
CN(C)S(=O)(=O)c1ccc2c(c1)/C(=C/c1[nH]cc3c1CCOC3=O)C(=O)N2	33	> 20000	> 20000	> 20000
O=C1Nc2ccc(Br)cc2/C1=C/c1[nH]cc2c1CCOC2=O	190	> 20000	18000	11000
NS(=O)(=O)c1ccc2c(c1)/C(=C/c1[nH]cc3c1CCOC3=O)C(=O)N2	12	13000	> 20000	6600
CC(C)NS(=O)(=O)c1ccc2c(c1)/C(=C/c1[nH]cc3c1CCOC3=O)C(=O)N2	64	> 20000	> 20000	6700
O=C1Nc2cccc(CCO)c2/C1=C/c1[nH]cc2c1CCNC2=O	340	–	–	–
CN(C)S(=O)(=O)c1ccc2c(c1)/C(=C/c1[nH]cc3c1CCNC3=O)C(=O)N2	68	–	–	–
O=C1Nc2ccc(C(=O)O)cc2/C1=C/c1[nH]cc2c1CCOC2=O	4	> 20000	> 20000	6200
O=C1Nc2ccc(Br)cc2/C1=C/c1[nH]cc2c1CCNC2=O	530	–	–	–
CNS(=O)(=O)c1ccc2c(c1)/C(=C/c1[nH]cc3c1CCNC3=O)C(=O)N2	9	–	–	–
O=C1Nc2cccc(C3CCNCC3)c2/C1=C/c1[nH]cc2c1CCNC2=O	49	–	–	–
O=C1Nc2ccc(F)cc2/C1=C/c1[nH]cc2c1CCNC2=O	300	–	–	–
CNS(=O)(=O)c1ccc2c(c1)/C(=C/c1[nH]cc3c1CCOC3=O)C(=O)N2	4	> 20000	> 20000	6600
